Source: PubChem BioAssay (NCI)
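Results reflect a 48-hour exposure of cells in 96-well plates to compound at five concentrations. The concentration for full growth arrest is given as TGI.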 Where a SMILES comes first, the peptide text is derived from it. The star is where a group is joined. Cbz = O=C(OCc1ccccc1)*; OBn = c1ccc(CO*)cc1

Legend:
Test in all cases: growth of human tumour cells (NCI), 48 h
[1] = system: OVCAR-8 ovarian
[2] = system: HOP-62 NSCLC
[3] = system: HCC-2998 colon
[4] = system: SNB-75 CNS
[5] = system: HCT-15 colon
[6] = system: TK-10 renal
[7] = system: SK-MEL-5 melanoma
[8] = system: UACC-257 melanoma
[9] = system: CCRF-CEM leukemia
[10] = system: IGROV1 ovarian

Row | Structure (SMILES) | TGI [1] [µM] | TGI [2] [µM] | TGI [3] [µM] | TGI [4] [µM] | TGI [5] [µM] | TGI [6] [µM] | TGI [7] [µM] | TGI [8] [µM] | TGI [9] [µM] | TGI [10] [µM]
1 | COC(=O)[C@H](Cc1ccccc1)NC(=O)NCCN(CCNC(=O)N[C@@H](Cc1ccccc1)C(=O)OC)C(=O)N[C@@H](Cc1ccccc1)C(=O)OC | 34.6 | 39.8 | 34.8 | 35.9 | > 100 | 37.3 | 37.4 | 40.4 | – | –
2 | CC1CC2OC(=O)C3CC(O)CC(=C23)[C@@]12C[C@@H](c1ccoc1)OC2=O (stereo not given in full) | > 100 | – | > 100 | > 100 | > 100 | > 100 | > 100 | > 100 | > 100 | > 100
3 | C=C1C(=O)C([Si](C)(C)C)=C2C=C(C)C3(CC3)C12C (stereo not given) | > 100 | > 100 | 70.2 | – | > 100 | > 100 | > 100 | > 100 | 11 | > 100
4 | O=C(O)c1c[nH]c2c(Sc3ccccc3)nccc2c1=O | > 100 | > 100 | – | > 100 | > 100 | > 100 | > 100 | > 100 | > 100 | > 100
5 | O=c1[nH]c(=O)n(C2OC(CO)C(O)C(F)C2O)cc1F (stereo not given) | > 100 | – | > 100 | – | > 100 | > 100 | > 100 | > 100 | > 100 | –
6 | COC(=O)CNC(=O)C(C)NC(=O)C(CC(=O)OCc1ccccc1)NC(=O)OCc1ccccc1 (stereo not drawn) (Cbz-Asp(OBn)-Ala-Gly-OMe; configuration not given here) | > 100 | > 100 | > 100 | > 100 | > 100 | > 100 | 71.8 | > 100 | – | > 100
7 | O=c1n(/N=C/c2ccccc2)c(=O)n2n1C1C=CC2CC1 | > 100 | > 100 | – | > 100 | > 100 | > 100 | > 100 | > 100 | > 100 | > 100
8 | CCOC(=O)/C(N=Nc1ccc(-n2c(C)nc3ccccc3c2=O)cc1)=C(/C)O | 50.5 | > 100 | – | 78.4 | > 100 | > 100 | 16 | > 100 | > 100 | > 100
9 | NCCCCNCCCN1CC1 | – | 5.83 | 97.1 | 1.92 | > 100 | > 100 | 9.67 | > 100 | – | > 21.5
10 | O=C1CSC2(CC(/C=C/c3ccccc3O)=NN2c2cccc(S(=O)(=O)O)c2)N1c1nc2ccccc2s1 (stereo not given) | 54.1 | – | 52.6 | > 100 | > 100 | 58.5 | > 100 | > 100 | 51.7 | > 100
11 | CCOC(=O)c1cc(Sc2ccc(N)c(C(=O)OCC)c2)ccc1N | > 100 | 65.9 | – | > 100 | > 100 | – | > 100 | > 100 | > 100 | > 100
12 | Cn1c(O)c(C(=O)Nc2cccs2)c(=O)[nH]c1=S | 66.2 | 40.6 | – | 31.3 | 43 | 61.6 | 26.9 | 32.6 | > 100 | 52
13 | Oc1ccccc1/C=N/Nc1nnc2c3ccccc3c3ccccc3c2n1 | > 100 | > 100 | – | 84.4 | > 100 | > 100 | > 100 | 64.7 | > 100 | > 100
14 | Cn1nc(Cc2ccc(Cl)cc2)n(N)c1=O | > 100 | – | > 100 | > 100 | > 100 | > 100 | > 100 | > 100 | – | > 100
15 | CC(C)=CCCC1(C)C=Cc2c(c(C)cc3c2[nH]c2cc(O)ccc23)O1 (stereo not given) | > 25 | > 25 | > 25 | – | > 25 | > 25 | > 25 | – | > 25 | > 25
16 | CCOC(C[C@H](O)[C@H]1COC(=S)S1)OCC | > 100 | > 100 | > 100 | – | > 100 | > 100 | > 100 | > 100 | – | > 100
17 | CC(C)c1ccccc1SC1CC(=O)CC(Sc2ccccc2C(C)C)C12O[C@H](c1ccccc1)[C@@H](c1ccccc1)O2 (stereo not given in full) | > 100 | > 100 | > 100 | – | > 100 | > 100 | > 100 | > 100 | 52.9 | > 100
